Tests used:
Type in all cases: cell-based
[1] = molecular target: human TLR7 (Homo sapiens (Human), UniProt Q9NYK1); assay: TLR7 inhibition reporter assay (HEK-Blue, SEAP); conditions: HEK-Blue cells overexpressing human TLR7, gardiquimod 7.5 μM stimulation
Outline: (§1)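 After 30 min room-temperature pre-incubation with compound (0.05 nM–50 μM), reporter HEK-Blue lines were activated by ODN2006 5 nM for TLR9, R848 15.9 μM for TLR8 or gardiquimod 7.5 μM for TLR7. SEAP detected after 22 h, 37 °C; inhibition scaled between agonist+DMSO wells and known-inhibitor control.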

[2] = molecular target: human TLR8 (Homo sapiens (Human), UniProt Q9NR97); assay: TLR8 inhibition reporter assay (HEK-Blue, SEAP); conditions: HEK-Blue cells overexpressing human TLR8, R848 15.9 μM stimulation
human TLR8, sequence (Q9NR97 27-1041): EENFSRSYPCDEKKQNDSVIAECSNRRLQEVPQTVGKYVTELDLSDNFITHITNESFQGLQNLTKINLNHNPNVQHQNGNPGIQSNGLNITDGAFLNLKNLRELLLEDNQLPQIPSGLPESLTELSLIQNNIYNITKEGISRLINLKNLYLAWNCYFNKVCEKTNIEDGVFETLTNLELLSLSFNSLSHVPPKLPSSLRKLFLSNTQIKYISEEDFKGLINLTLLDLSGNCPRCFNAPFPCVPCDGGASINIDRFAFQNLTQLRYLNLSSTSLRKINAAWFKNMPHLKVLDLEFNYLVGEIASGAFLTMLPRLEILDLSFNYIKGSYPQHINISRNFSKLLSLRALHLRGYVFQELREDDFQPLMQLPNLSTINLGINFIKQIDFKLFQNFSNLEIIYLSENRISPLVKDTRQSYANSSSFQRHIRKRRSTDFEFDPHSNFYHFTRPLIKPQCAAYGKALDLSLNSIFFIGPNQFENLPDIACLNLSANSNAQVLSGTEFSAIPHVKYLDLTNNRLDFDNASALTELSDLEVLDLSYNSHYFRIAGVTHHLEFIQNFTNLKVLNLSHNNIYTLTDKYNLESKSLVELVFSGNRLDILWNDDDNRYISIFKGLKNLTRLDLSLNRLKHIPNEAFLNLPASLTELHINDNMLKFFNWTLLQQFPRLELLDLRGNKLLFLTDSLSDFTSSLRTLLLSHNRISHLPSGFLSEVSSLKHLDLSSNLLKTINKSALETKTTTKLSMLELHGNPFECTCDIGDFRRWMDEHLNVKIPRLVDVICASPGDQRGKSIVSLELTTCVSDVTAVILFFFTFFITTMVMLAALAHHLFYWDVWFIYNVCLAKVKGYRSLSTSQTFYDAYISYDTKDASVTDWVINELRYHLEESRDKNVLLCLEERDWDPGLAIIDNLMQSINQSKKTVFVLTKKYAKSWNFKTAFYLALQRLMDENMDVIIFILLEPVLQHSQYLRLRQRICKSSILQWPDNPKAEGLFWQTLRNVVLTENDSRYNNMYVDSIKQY
Outline: as §1

[3] = molecular target: human TLR9 (Homo sapiens (Human), UniProt Q9NR96); assay: TLR9 inhibition reporter assay (HEK-Blue, SEAP); conditions: HEK-Blue cells overexpressing human TLR9, ODN2006 5 nM stimulation
human TLR9, sequence (Q9NR96 26-1032): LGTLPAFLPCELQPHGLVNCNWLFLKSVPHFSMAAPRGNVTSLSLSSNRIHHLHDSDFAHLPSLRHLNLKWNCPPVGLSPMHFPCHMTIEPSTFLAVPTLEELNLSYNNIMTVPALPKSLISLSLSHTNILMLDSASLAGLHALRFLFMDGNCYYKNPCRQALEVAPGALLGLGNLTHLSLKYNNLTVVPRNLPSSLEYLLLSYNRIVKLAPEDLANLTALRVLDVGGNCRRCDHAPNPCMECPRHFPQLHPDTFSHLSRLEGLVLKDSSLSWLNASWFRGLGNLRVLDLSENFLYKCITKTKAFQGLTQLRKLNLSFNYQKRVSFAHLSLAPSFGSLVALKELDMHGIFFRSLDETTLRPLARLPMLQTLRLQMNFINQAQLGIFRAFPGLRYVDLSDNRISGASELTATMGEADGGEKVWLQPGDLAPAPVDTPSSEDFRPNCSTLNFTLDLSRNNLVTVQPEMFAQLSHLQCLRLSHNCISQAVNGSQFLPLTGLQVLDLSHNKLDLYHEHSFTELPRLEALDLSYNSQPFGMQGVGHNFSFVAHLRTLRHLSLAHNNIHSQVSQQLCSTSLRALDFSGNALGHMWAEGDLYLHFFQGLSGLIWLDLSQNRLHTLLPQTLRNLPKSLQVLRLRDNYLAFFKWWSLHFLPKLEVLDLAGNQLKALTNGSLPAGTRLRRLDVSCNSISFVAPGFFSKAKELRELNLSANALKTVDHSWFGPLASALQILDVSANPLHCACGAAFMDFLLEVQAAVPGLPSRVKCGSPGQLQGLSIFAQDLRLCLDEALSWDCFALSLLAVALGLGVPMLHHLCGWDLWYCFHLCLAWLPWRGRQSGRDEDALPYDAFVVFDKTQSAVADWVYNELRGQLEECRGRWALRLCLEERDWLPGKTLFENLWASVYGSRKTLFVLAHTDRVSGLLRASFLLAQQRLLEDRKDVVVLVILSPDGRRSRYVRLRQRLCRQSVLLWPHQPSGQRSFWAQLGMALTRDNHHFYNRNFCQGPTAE
Outline: as §1

human TLR7, sequence (Q9NYK1 27-1049): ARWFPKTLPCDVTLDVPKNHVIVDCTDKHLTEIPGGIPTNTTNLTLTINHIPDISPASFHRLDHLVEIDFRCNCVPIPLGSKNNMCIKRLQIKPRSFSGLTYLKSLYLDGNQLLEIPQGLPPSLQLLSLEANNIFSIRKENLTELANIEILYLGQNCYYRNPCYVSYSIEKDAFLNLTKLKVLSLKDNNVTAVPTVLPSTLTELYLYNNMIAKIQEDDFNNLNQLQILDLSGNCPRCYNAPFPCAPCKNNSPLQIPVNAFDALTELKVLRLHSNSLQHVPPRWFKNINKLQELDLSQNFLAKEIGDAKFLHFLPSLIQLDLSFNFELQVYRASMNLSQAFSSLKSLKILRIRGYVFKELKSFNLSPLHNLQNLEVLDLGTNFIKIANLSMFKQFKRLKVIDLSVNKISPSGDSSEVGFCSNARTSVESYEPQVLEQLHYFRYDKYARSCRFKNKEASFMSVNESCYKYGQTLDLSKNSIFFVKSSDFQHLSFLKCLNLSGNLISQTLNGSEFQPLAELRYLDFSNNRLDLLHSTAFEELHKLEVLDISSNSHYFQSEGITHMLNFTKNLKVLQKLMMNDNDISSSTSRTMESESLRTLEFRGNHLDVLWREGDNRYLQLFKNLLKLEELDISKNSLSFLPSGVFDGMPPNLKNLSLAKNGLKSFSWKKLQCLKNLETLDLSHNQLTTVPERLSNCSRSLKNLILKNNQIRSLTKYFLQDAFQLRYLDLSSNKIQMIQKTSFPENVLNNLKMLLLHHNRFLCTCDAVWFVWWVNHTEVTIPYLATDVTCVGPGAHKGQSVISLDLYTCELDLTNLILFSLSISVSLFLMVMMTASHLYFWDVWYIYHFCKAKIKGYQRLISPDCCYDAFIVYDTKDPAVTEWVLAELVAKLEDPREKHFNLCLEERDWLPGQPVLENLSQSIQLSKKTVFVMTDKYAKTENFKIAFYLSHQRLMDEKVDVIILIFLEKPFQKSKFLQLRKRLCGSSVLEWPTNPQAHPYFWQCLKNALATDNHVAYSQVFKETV

Structure (SMILES) | IC50 [1] [nM] | IC50 [2] [nM] | IC50 [3] [nM]
Cc1cc(-c2[nH]c3ccc(-c4ccnc(N5CCNCC5)c4)cc3c2C(C)C)cc(C)n1 [Example 320, 2-(2,6-dimethylpyridin-4-yl)-3-isopropyl-5-(2-(piperazin-1-yl)pyridin-4-yl)-1H-indole] | 71 | 86 | 2970
COc1ccc(-c2[nH]c3ccc(-c4ccc(NCCCN(C)C)cc4)cc3c2C(C)C)cc1OC [Example 400, N1-(4-(2-(3,4-dimethoxyphenyl)-3-isopropyl-1H-indol-5-yl)phenyl)-N3,N3-dimethylpropane-1,3-diamine] | 165 | 35 | 2660
CC(C)c1c(-c2ccnc3[nH]ncc23)[nH]c2ccc(-c3nnc(C4CCCN(C)C4)o3)cc12 (stereo not drawn) [Example 162, 2-(3-isopropyl-2-(1H-pyrazolo[3,4-b]pyridin-4-yl)-1H-indol-5-yl)-5-(1-methylpiperidin-3-yl)-1,3,4-oxadiazole] | 52 | 1.7 | 1380
CC(C)c1c(-c2ccnc3[nH]ncc23)[nH]c2ccc(-c3nnc(C4CCN(C(=O)CN(C)C)CC4)o3)cc12 [Example 86, 2-(dimethylamino)-1-(4-(5-(3-isopropyl-2-(1H-pyrazolo[3,4-b]pyridin-4-yl)-1H-indol-5-yl)-1,3,4-oxadiazol-2-yl)piperidin-1-yl)ethan-1-one] | 85 | 6.1 | 324
COc1ccc(-c2[nH]c3ccc(-c4ccc(N5CCN(C(C)=O)CC5)nc4)cc3c2C(C)C)cc1OC [Example 390, 1-(4-(5-(2-(3,4-dimethoxyphenyl)-3-isopropyl-1H-indol-5-yl)pyridin-2-yl)piperazin-1-yl)ethan-1-one] | 969 | 44 | > 50000
CCc1c(-c2ccnc3[nH]ncc23)[nH]c2ccc(-c3ccc(N4CCN(C)CC4)cc3)cc12 [Example 384, 4-(3-ethyl-5-(4-(4-methylpiperazin-1-yl)phenyl)-1H-indol-2-yl)-1H-pyrazolo[3,4-b]pyridine] | 145 | 12 | 1950
COc1ccc(-c2[nH]c3ccc(-c4nnc(C5CCN(C(=O)OC(C)(C)C)CC5)o4)cc3c2C(C)C)cc1OC [Example 19, tert-butyl 4-(5-(2-(3,4-dimethoxyphenyl)-3-isopropyl-1H-indol-5-yl)-1,3,4-oxadiazol-2-yl)piperidine-1-carboxylate] | 2510 | 484 | > 50000
Cc1cc(-c2[nH]c3ccc(-c4nnc(C(C)CN)o4)cc3c2C(C)C)ccn1 (stereo not drawn) [Example 263, 2-(5-(3-isopropyl-2-(2-methylpyridin-4-yl)-1H-indol-5-yl)-1,3,4-oxadiazol-2-yl)propan-1-amine] | 50 | 3.2 | 869
COc1ccc(-c2[nH]c3ccc(-c4ccnc(C(=O)NC5CCC(N)CC5)c4)cc3c2C(C)C)cc1OC (stereo not drawn) [Example 12, N-(4-aminocyclohexyl)-4-(2-(3,4-dimethoxyphenyl)-3-isopropyl-1H-indol-5-yl)picolinamide] | 69 | 37 | 2160
CC(C)c1c(-c2ccnc3[nH]ncc23)[nH]c2ccc(-c3cccnc3)cc12 [Example 467, 4-(3-isopropyl-5-(pyridin-3-yl)-1H-indol-2-yl)-1H-pyrazolo[3,4-b]pyridine] | 208 | 18 | 24200
Cc1cc(-c2[nH]c3ccc(-c4nc(C(=O)NCCC5CCCN5)co4)cc3c2C(C)C)cc(C)n1 (stereo not drawn) [Example 291, 2-(2-(2,6-dimethylpyridin-4-yl)-3-isopropyl-1H-indol-5-yl)-N-(2-(pyrrolidin-2-yl)ethyl)oxazole-4-carboxamide] | 67 | 23 | 494
COc1ccc(-c2[nH]c3ccc(-c4ccc(OCCCN(C)C)nc4)cc3c2C(C)C)cc1OC [Example 421, 3-((5-(2-(3,4-dimethoxyphenyl)-3-isopropyl-1H-indol-5-yl)pyridin-2-yl)oxy)-N,N-dimethylpropan-1-amine] | 63 | 12 | 2750
COc1ccc(-c2[nH]c3ccc(-c4cccc(C(=O)N5CCC(O)CC5)c4)cc3c2CC(F)(F)F)cc1OC [Example 31, (3-(2-(3,4-dimethoxyphenyl)-3-(2,2,2-trifluoroethyl)-1H-indol-5-yl)phenyl)(4-hydroxypiperidin-1-yl)methanone] | 895 | 307 | 25800
Cc1cc(-c2[nH]c3ccc(-c4nnc(CCN(C)C)o4)cc3c2C(C)C)ccn1 [Example 143, 2-(5-(3-isopropyl-2-(2-methylpyridin-4-yl)-1H-indol-5-yl)-1,3,4-oxadiazol-2-yl)-N,N-dimethylethan-1-amine] | 47 | 0.8 | 1680
COc1ccc(-c2[nH]c3ccc(-c4nnc(C(=O)N5CC[C@H](N(C)C)C5)o4)cc3c2C(C)C)cc1OC [Example 98, (S)-(5-(2-(3,4-dimethoxyphenyl)-3-isopropyl-1H-indol-5-yl)-1,3,4-oxadiazol-2-yl)(3-(dimethylamino)pyrrolidin-1-yl)methanone] | 68 | 17 | 2660

Second part, the compound after the results:

IC50 [1] [nM] | IC50 [2] [nM] | IC50 [3] [nM] | Structure (SMILES)
19 | 8.8 | 1070 | COc1ccc(-c2[nH]c3ccc(-c4nnc(N5CCNCC5)o4)cc3c2C(C)C)cc1OC [Example 105, 2-(2-(3,4-dimethoxyphenyl)-3-isopropyl-1H-indol-5-yl)-5-(piperazin-1-yl)-1,3,4-oxadiazole]
4.9 | 1.6 | 157 | Cc1cc(-c2[nH]c3ccc(-c4nnc(C5CCCN(C(C)C)C5)[nH]4)cc3c2C(C)C)cc(C)n1 (stereo not drawn) [Example 358, 2-(2,6-dimethylpyridin-4-yl)-3-isopropyl-5-(5-(1-isopropylpiperidin-3-yl)-4H-1,2,4-triazol-3-yl)-1H-indole]
6.6 | 1 | 138 | Cc1cc(-c2[nH]c3ccc(-c4nnc(C(=O)NCCN(C)C)o4)cc3c2C(C)C)cc(C)n1 [Example 223, N-(2-(dimethylamino)ethyl)-5-(2-(2,6-dimethylpyridin-4-yl)-3-isopropyl-1H-indol-5-yl)-1,3,4-oxadiazole-2-carboxamide]
31 | 2.2 | 872 | Cc1cc(-c2[nH]c3ccc(-c4nnc(C5CCCN(CC(=O)N(C)C)C5)[nH]4)cc3c2C(C)C)ccn1 (stereo not drawn) [Example 180, 2-(3-(5-(3-isopropyl-2-(2-methylpyridin-4-yl)-1H-indol-5-yl)-4H-1,2,4-triazol-3-yl)piperidin-1-yl)-N,N-dimethylacetamide]
29 | 1.7 | 695 | Cc1cc(-c2[nH]c3ccc(-c4nnc(CCCN(C)C)o4)cc3c2C(C)C)ccn1 [Example 77, 3-(5-(3-isopropyl-2-(2-methylpyridin-4-yl)-1H-indol-5-yl)-1,3,4-oxadiazol-2-yl)-N,N-dimethylpropan-1-amine]
33 | 37 | 488 | Cc1cc(-c2[nH]c3ccc(-c4nc(C(=O)NCCCN)co4)cc3c2C(C)C)cc(C)n1 [Example 278, N-(3-aminopropyl)-2-(2-(2,6-dimethylpyridin-4-yl)-3-isopropyl-1H-indol-5-yl)oxazole-4-carboxamide]
46 | 2.9 | 1840 | Cc1cc(-c2[nH]c3ccc(-c4nc(C(=O)NC5CCN(C(C)C)CC5)co4)cc3c2C(C)C)ccn1 [Example 173, 2-(3-isopropyl-2-(2-methylpyridin-4-yl)-1H-indol-5-yl)-N-(1-isopropylpiperidin-4-yl)oxazole-4-carboxamide]
45 | 3.4 | 389 | CC(C)c1c(-c2ccnc3[nH]ncc23)[nH]c2ccc(-c3nnc([C@H]4CCCNC4)o3)cc12 [Example 126, (S)-2-(3-isopropyl-2-(1H-pyrazolo[3,4-b]pyridin-4-yl)-1H-indol-5-yl)-5-(piperidin-3-yl)-1,3,4-oxadiazole]
12 | 2.9 | 340 | Cc1cc(-c2[nH]c3ccc(-c4ccc(N5CCNCC5)nc4)cc3c2C(C)C)ccn1 [Example 255, 3-isopropyl-2-(2-methylpyridin-4-yl)-5-(6-(piperazin-1-yl)pyridin-3-yl)-1H-indole]
34 | 8.7 | 11200 | Cc1cc(-c2[nH]c3ccc(-c4nc(C(=O)NCCN5CCOCC5)co4)cc3c2C(C)C)cc(C)n1 [Example 281, 2-(2-(2,6-dimethylpyridin-4-yl)-3-isopropyl-1H-indol-5-yl)-N-(2-morpholinoethyl)oxazole-4-carboxamide]
45 | 27 | 10400 | Cc1cc(-c2[nH]c3ccc(-c4nnc(C5CCCNC5)[nH]4)cc3c2C(C)C)ccn1 (stereo not drawn) [Example 164, 3-isopropyl-2-(2-methylpyridin-4-yl)-5-(5-(piperidin-3-yl)-4H-1,2,4-triazol-3-yl)-1H-indole]
35 | 1.4 | 484 | Cc1cc(-c2[nH]c3ccc(-c4cc5c(s4)CN(C)CC5)cc3c2C(C)C)ccn1 [Example 251, 2-(3-isopropyl-2-(2-methylpyridin-4-yl)-1H-indol-5-yl)-6-methyl-4,5,6,7-tetrahydrothieno[2,3-c]pyridine]
8.3 | 5.4 | 523 | Cc1cc(-c2[nH]c3ccc(-c4ccc(N5CCN(CCO)CC5)nc4)cc3c2C(C)C)cc(C)n1 [Example 339, 2-(4-(5-(2-(2,6-dimethylpyridin-4-yl)-3-isopropyl-1H-indol-5-yl)pyridin-2-yl)piperazin-1-yl)ethan-1-ol]

Source: patent publication US11420958B2, “Aryl and heteroaryl substituted indole compounds” (BRISTOL-MYERS SQUIBB COMPANY, priority 2017, dated 2022)
